pEC50, pIC50: −log10 of the molar value. The source made the active and inactive calls. The calls are words filed in the database; no cut-off is given here. Where a SMILES comes first, the peptide text is derived from it.
What was measured:
[1] = molecular target: Proteinase-activated receptor 2 (Homo sapiens) (UniProt P55085); assay: Antagonist activity at PAR2 in human HT-29 cells assessed as inhibition of 2f-LIGRLO-NH2-stimulated intracellular calcium release at 10 uM preincubated for 30 mins followed by 2f-LIGRLO-NH2 stimulation measured for 60 secs by Fluo-3 AM dye based FLIPR assay relative to control; assay type: functional, cell-based
[2] = molecular target: Proteinase-activated receptor 2 (Homo sapiens) (UniProt P55085); assay: Agonist activity at PAR2 in human HT-29 cells assessed as increase in intracellular calcium release at 10 uM incubated for 30 mins measured for 60 secs by Fluo-3 AM dye based FLIPR assay relative to 2f-LIGRLO-NH2; assay type: functional, cell-based
[3] = molecular target: T1, Proteinase-activated receptor 2 (Homo sapiens, UniProt P55085); assay: Agonist activity at PAR2 in human HT-29 cells assessed as increase in intracellular calcium release incubated for 30 mins measured for 60 secs by Fluo-3 AM dye based FLIPR assay relative to 2f-LIGRLO-NH2; assay type: functional, cell-based
T1 sequence (P55085 whole entry): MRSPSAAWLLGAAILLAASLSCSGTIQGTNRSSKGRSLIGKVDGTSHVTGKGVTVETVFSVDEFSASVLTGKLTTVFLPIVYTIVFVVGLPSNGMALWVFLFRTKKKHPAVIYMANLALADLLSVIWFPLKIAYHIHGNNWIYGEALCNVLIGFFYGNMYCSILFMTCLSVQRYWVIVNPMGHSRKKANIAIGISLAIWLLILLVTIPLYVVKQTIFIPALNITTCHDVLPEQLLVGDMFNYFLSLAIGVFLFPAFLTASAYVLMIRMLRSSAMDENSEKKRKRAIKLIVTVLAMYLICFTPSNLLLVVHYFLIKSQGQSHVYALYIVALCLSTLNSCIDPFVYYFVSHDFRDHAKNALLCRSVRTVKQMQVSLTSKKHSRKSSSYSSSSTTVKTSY

[4] = molecular target: T1, Proteinase-activated receptor 2; assay: Antagonist activity at PAR2 in human HT-29 cells assessed as inhibition of 2f-LIGRLO-NH2-stimulated intracellular calcium release preincubated for 30 mins followed by 2f-LIGRLO-NH2 stimulation measured for 60 sec by Fluo-3 AM dye based FLIPR assay; assay type: functional, cell-based; settings: for pIC50: read-out: IC50; for IC50: read-out: pIC50 (converted)
[5] = Stability in Wistar rat plasma at 10 uM measured up to 3 hrs by LC/MS/MS analysis; assay type: ADME, cell-free; settings: read-out: Stability
[6] = Elimination half life in Wistar rat liver homogenate at 10 uM by LC/MS/MS analysis; assay type: ADME, tissue-based; settings: read-out: beta t1/2
[7] = test system: Rattus norvegicus; assay: Antiinflammatory activity in Wistar rat acute paw edema model assessed as inhibition of 2f-LIGRLO-NH2-induced […] swelling at 10 mg/kg administered via oral gavage for 2 hrs followed by 2f-LIGRLO-NH2 addition measured up to 3 hrs; assay type: functional, organism-based
[8] = Solubility of compound; assay type: physicochemical
[9] = Half life in Wistar rat plasma at 10 uM by LC/MS/MS analysis; assay type: ADME, cell-free
[10] = molecular target: T1, Proteinase-activated receptor 2; assay: Antagonist activity at PAR2 in human HT-29 cells assessed as inhibition of endogenous trypsin-stimulated intracellular calcium release by Fluo-3 AM dye based FLIPR assay; assay type: functional, cell-based
[11] = AUC (0 to 6 hrs) in Wistar rat at 10 mg/kg, po administered via gavage; assay type: ADME, organism-based; set-up: time < 6 hr, dose 10 mg/kg, route oral; settings: in vivo
[12] = Time at which maximum plasma concentration stays above 2 times in vitro PAR2 IC50 in Wistar rat at 10 mg/kg, po administered via gavage; assay type: ADME, organism-based; settings: in vivo

Row | Compound | inhibition [1] | Activity [2] | further results
1 | CC[C@H](C)[C@H](NC(=O)[C@H](CC1CCCCC1)NC(=O)c1ccno1)C(=O)N1CCC(c2ccc(OC)cc2)CC1 | 43 to 69% | – | –
2 | CC(C)(C)[C@H](NC(=O)[C@H](CC1CCCCC1)NC(=O)c1ccno1)C(=O)N1CCC2(C=Cc3ccccc32)CC1 | 10 to 16% | – | –
3 | O=C(N[C@@H](CC1CCCCC1)C(=O)N[C@@H](CC1CCCCC1)C(=O)N1CCC2(C=Cc3ccccc32)CC1)c1ccno1 | 10 to 16% | – | –
4 | CC[C@H](C)[C@H](NC(=O)[C@H](CC1CCCCC1)NC(=O)c1ccno1)C(=O)N1CCc2cc(OC)c(OC)cc2C1 | – | 65% | –
5 | CC[C@H](C)[C@H](NC(=O)[C@H](CC1CCCCC1)NC(=O)c1ccno1)C(=O)N1CCC2(CC1)c1ccccc1C1OC12 (some centres undefined) | – | 65% | pEC50 [3]: 5.74 to 6.15
6 | NCC[C@H](NC(=O)[C@H](CC1CCCCC1)NC(=O)c1ccno1)C(=O)N1CCC2(C=Cc3ccccc32)CC1 | – | 11% | –
7 | CC[C@H](C)[C@H](NC(=O)[C@H](CC1CCCCC1)NC(=O)c1ccno1)C(=O)N1CCC(c2ccc(Cl)cc2)CC1 | 43 to 69% | – | –
8 | CC[C@H](C)[C@H](NC(=O)[C@H](CC1CCCCC1)NC(=O)c1nc[nH]n1)C(=O)N1CCC2(C=Cc3ccccc32)CC1 | 43% | – | –
9 | CC[C@H](C)[C@H](NC(=O)[C@H](CC1CCCCC1)NC(=O)c1ccno1)C(=O)N1CCC(O)(c2ccc(C(F)(F)F)cc2C(F)(F)F)CC1 | 43 to 69% | – | –
10 | CC[C@H](C)[C@H](NC(=O)[C@H](CC1CCCCC1)NC(=O)c1ccno1)C(=O)N1CCC2(CCc3ccccc3O2)CC1 | 77% | – | pIC50 [4]: 5.72
11 | CC[C@H](C)[C@H](NC(=O)[C@H](CC1CCCCC1)NC(=O)c1ccno1)C(=O)N1CCC(c2ccccc2C(F)(F)F)CC1 | 43 to 69% | – | –
12 | CC[C@H](C)[C@H](NC(=O)[C@H](CC1CCCCC1)NC(=O)c1cc(N)no1)C(=O)N1CCC2(C=Cc3ccccc32)CC1 | 91% | – | remaining at 3 h, 10 µM [5]: > 75%; half-life at 10 µM [6]: 15 min; inhibition [7]: Active; solubility [8]: Soluble
13 | CC[C@H](C)[C@H](NC(=O)[C@H](CC1CCCCC1)NC(=O)c1ccno1)C(=O)N1CCN(c2ccccc2)CC1 | – | 30 to 50% | –
14 | C[C@@H](O)[C@H](NC(=O)[C@H](CC1CCCCC1)NC(=O)c1ccno1)C(=O)N1CCC2(C=Cc3ccccc32)CC1 | – | 53 to 81% | –
15 | CC[C@H](C)[C@H](NC(=O)[C@H](CC1CCCCC1)NC(=O)c1c[nH]cn1)C(=O)N1CCC2(C=Cc3ccccc32)CC1 | 53% | – | pIC50 [4]: 5.51; solubility [8]: Soluble
16 | CC[C@H](C)[C@H](NC(=O)[C@H](CC1CCCCC1)NC(=O)c1ccno1)C(=O)N1CCC2(CC1)CC(=O)c1ccccc1O2 | – | 62 to 70% | pEC50 [3]: 5.74 to 6.15
17 | CO[C@H](C)[C@H](NC(=O)[C@H](CC1CCCCC1)NC(=O)c1ccno1)C(=O)N1CCC2(C=Cc3ccccc32)CC1 | – | 53 to 81% | –

Row | Compound | inhibition [1] | Activity [2] | further results
18 | CC[C@H](C)[C@H](NC(=O)[C@H](CC1CCCCC1)NC(=O)c1ccno1)C(=O)N1CCC(NC(C)=O)(c2ccccc2)CC1 | – | 81% | –
19 | CC[C@H](C)[C@H](NC(=O)[C@H](CC1CCCCC1)NC(=O)c1ccno1)C(=O)N1CC[C@H]2CCCC[C@H]2[C@H]1C(=O)NC(C)(C)C | 38% | – | –
20 | CC[C@H](C)[C@H](NC(=O)[C@H](CC(C)C)NC(=O)[C@@H](N)CO)C(=O)NCC(=O)N[C@@H](CCCNC(=N)N)C(=O)N[C@@H](CC(C)C)C(N)=O (H-SLIGRL-NH2) | – | – | half-life at 10 µM [6]: 15 min; half-life at 10 µM [9]: 20 min
21 | CC[C@H](C)[C@H](NC(=O)[C@H](CC1CCCCC1)NC(=O)c1ccno1)C(=O)N1CCN(Cc2ccc(F)cc2)CC1 | – | 30 to 50% | –
22 | NC(=O)C[C@H](NC(=O)[C@H](CC1CCCCC1)NC(=O)c1ccno1)C(=O)N1CCC2(C=Cc3ccccc32)CC1 | – | 53 to 81% | –
23 | CC[C@H](C)[C@H](NC(=O)[C@H](CC1CCCCC1)NC(=O)c1ccno1)C(=O)N1CCC2(C=Cc3ccccc32)CC1 | 92% | – | remaining at 3 h, 10 µM [5]: > 75%; half-life at 10 µM [6]: 60 min; pIC50 [4]: 5.77 to 5.96; IC50 [4]: 1.58 µM; pIC50 [10]: 5.44
24 | CC[C@H](C)[C@H](NC(=O)[C@H](CC1CCCCC1)NC(=O)c1cscn1)C(=O)N1CCC2(C=Cc3ccccc32)CC1 | 70% | – | –
25 | CC[C@H](C)[C@H](NC(=O)[C@H](CC1CCCCC1)NC(=O)c1ccno1)C(=O)N1CCCC[C@H]1C(=O)NC(C)(C)C | 64% | – | –
26 | CC[C@H](C)[C@H](NC(=O)[C@H](CC1CCCCC1)NC(=O)c1ccno1)C(=O)N1CCN(c2ccc(F)cc2)CC1 | – | 30 to 50% | –
27 | CC(C)(NC(=O)[C@H](CC1CCCCC1)NC(=O)c1ccno1)C(=O)N1CCC2(C=Cc3ccccc32)CC1 | 10 to 16% | – | –
28 | CC[C@H](C)[C@H](NC(=O)[C@H](CC1CCCCC1)NC(=O)c1ccno1)C(=O)N1CCC2(CC1)OC(=O)c1ccccc12 | – | 62 to 70% | pEC50 [3]: 5.74 to 6.15
29 | CC[C@H](C)[C@H](NC(=O)[C@H](CC1CCCCC1)NC(=O)c1cc(CN)no1)C(=O)N1CCC2(C=Cc3ccccc32)CC1 | 62% | – | pIC50 [4]: 5.05; IC50 [4]: 10 µM; solubility [8]: Soluble
30 | CC[C@H](C)[C@H](NC(=O)[C@H](CC1CCCCC1)NC(=O)c1ccno1)C(=O)N1CCC(c2ccccc2)CC1 | 93% | – | remaining at 3 h, 10 µM [5]: > 75%; half-life at 10 µM [6]: 30 min; AUC(0-t) at 6 h [11]: 1960 ng·h/mL; Time [12]: 2 to 3 h; inhibition [7]: Active
31 | O=C(N[C@@H](CC1CCCCC1)C(=O)N[C@@H](Cc1cnc[nH]1)C(=O)N1CCC2(C=Cc3ccccc32)CC1)c1ccno1 | – | 53 to 81% | –
32 | CC[C@H](C)[C@H](NC(=O)[C@H](CC1CCCCC1)NC(=O)c1cc(N)n[nH]1)C(=O)N1CCC2(C=Cc3ccccc32)CC1 | – | 26% | –
33 | CC[C@H](C)[C@H](NC(=O)[C@H](CC1CCCCC1)NC(=O)c1ccno1)C(=O)N1CCC(c2cc(OC)ccc2OC)CC1 | 43 to 69% | – | –
34 | CC[C@H](C)[C@H](NC(=O)[C@H](CC1CCCCC1)NC(=O)c1ccon1)C(=O)N1CCC2(C=Cc3ccccc32)CC1 | 27% | 21% | –

From ChEMBL document CHEMBL3865852, “PAR2 Modulators Derived from GB88” (ACS Med Chem Lett, 2016)
